# Patent US8962263B2, “Methods and compositions for detecting the activation state of multiple proteins in single cells” (The Board of Trustees of the Leland Stanford Junior …, priority 2001, dated 2015)
# How the values were obtained:
# [1] = system: ezrin; experiment: phosphotyrosine-protein based elisa for ezrin tyrosine phosphorylation upon ICAM-2 ligation; format: cell-based, human; conditions: Jurkat cells
# [2] = system: NIH3T3; experiment: staurosporine induced apoptosis in ICAM-2 transduced NIH3T3 (annexin-V binding, BrdU TUNEL); format: cell-based, murine
# In short: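 ICAM-2, ICAM2-ΔC or vector-transduced NIH3T3 cells treated with 1 μM staurosporine, with or without 10 μM LY294002, 24 h; DMSO vehicle control. Apoptosis by flow cytometry: annexin-V-FITC/PI at 12 h, BrdU TUNEL at 24 h; percent apoptotic cells, mean ± SD of triplicate cultures.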
structure (smiles),measurement,setting,value
CN(C)CCCn1cc(C2=C(c3c[nH]c4ccccc34)C(=O)NC2=O)c2ccccc21 [bisindolymaleimide I],tyrosine phosphorylation of ezrin,[1],minor affects
same,ICAM-2 induced survival signal,"[2]; PKC isozyme inhibitors, system not specified",did not abrogate
same,"effect on ICAM-2 anti-apoptotic effect, other kinase inhibitors","[2]; cell type not stated, data not shown",not abrogated
